Measured values taken from the supplement of paper PMC10307832.

Compound: CCOC1=CC=CC=C1N=NC2=C(NN(C2=O)C3=NC(=CS3)C4=CC=CC=C4)C [BAM7] + CCNC(=O)c1noc(-c2cc(C(C)C)c(O)cc2O)c1-c1ccc(CN2CCOCC2)cc1 [Luminespib] (partner 0.01 µM)
Experiment: relative viability (nuclei count vs DMSO), 5 days (fraction); higher = more cells survive
Summary of the method: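 Cells from lung cancer lines were seeded into 1536-well plates and, one day later, dosed by pin tool. Treatments were either a single drug or a fixed dose of an anchor drug with five library-drug doses (not always all listed) in √10 steps. After 5 days, nuclei were stained in a one-step fixation (final 0.05% Triton X-100, 1% formaldehyde, 1 ug/ml Hoechst) and counted on 4× images, and relative viability is the treated-to-vehicle nuclei ratio, as the median of duplicate plates.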

Row | Cell Line | relative viability (first compound 0.5 µM) | relative viability (first compound 5 µM) | relative viability (first compound 15.81 µM) | relative viability (first compound 50 µM)
1 | NCI-H522 | 1.2 | 1.2 | 1.11 | 0.993
2 | HCC-15 | 0.338 | 0.439 | 0.4 | 0.187
3 | A-427 | 0.949 | 0.715 | 0.886 | 1.03
4 | NCI-H2228 | 0.136 | 0.116 | 0.145 | 0.153
5 | NCI-H1734 | 0.215 | 0.202 | 0.171 | 0.211
6 | PC-14 | 0.208 | 0.16 | 0.152 | 0.143
7 | NCI-H1915 | 0.769 | 0.886 | 0.833 | 0.76
8 | NCI-H1666 | 1 | 0.953 | 1.03 | 1.03
9 | SK-MES-1 | 0.877 | 0.805 | 0.621 | 0.798
10 | SW 1573 | 0.356 | 0.168 | 0.417 | 0.229
11 | NCI-H661 | 0.916 | 0.938 | 0.96 | 0.921
12 | PC-3 [JPC-3] | 0.683 | 0.771 | 0.612 | 0.636
13 | NCI-H1623 | 0.491 | 0.595 | 0.526 | 0.6
14 | LC-2-ad | 1.06 | 1.26 | 0.951 | 1.03
15 | CAL-12T | 0.327 | 0.374 | 0.491 | 0.508
16 | RERF-LC-KJ | 1.19 | 0.93 | 0.726 | 0.759
17 | NCI-H1650 | 0.171 | 0.191 | 0.19 | 0.2
18 | BEN | 0.444 | 0.494 | 0.382 | 0.272
19 | EMC-BAC-2 | 1.13 | 1.28 | 1.12 | 1.15
20 | LU99A | 0.251 | 0.316 | 0.207 | 0.247
21 | ABC-1 | 0.291 | 0.496 | 0.469 | 0.773
22 | NCI-H2170 | 0.752 | 0.686 | 0.544 | 0.624
23 | NCI-H2347 | 0.592 | 0.416 | – | 0.516
24 | NCI-H1993 | 0.81 | 0.869 | 0.744 | 0.702

Row | Cell Line | relative viability (first compound 0.5 µM) | relative viability (first compound 5 µM) | relative viability (first compound 15.81 µM) | relative viability (first compound 50 µM)
25 | NCI-H322M | 0.876 | 0.966 | 0.903 | 0.93
26 | NCI-H838 | 0.359 | 0.292 | 0.346 | 0.328
27 | HARA | 0.678 | 0.868 | 0.682 | 0.66
28 | NCI-H2087 | 0.183 | 0.216 | 0.18 | 0.172
29 | NCI-H1437 | 1.16 | 1.13 | 1.12 | 1.09
30 | NCI-H2342 | 0.691 | 0.726 | 0.768 | 0.735
31 | NCI-H1792 | 0.501 | 0.46 | 0.421 | 0.509
32 | ChaGo-K-1 | 0.509 | 0.573 | 0.58 | 0.613
33 | NCI-H650 | 0.73 | 1.03 | 0.755 | 0.917
34 | COR-L23 | 0.635 | 0.661 | 0.601 | 0.647
35 | COR-L 105 | 0.668 | 0.892 | 0.706 | 0.734
36 | LK-2 | 0.221 | 0.172 | 0.228 | 0.191
37 | 201T | 0.984 | 1.11 | 0.793 | 1.01
38 | HCC-44 | 1.38 | 1.07 | 1.03 | 0.957
39 | NCI-H596 | 0.848 | 0.956 | 0.951 | 1.18
40 | H3255 | 0.801 | 1.12 | 0.787 | 1.03
41 | NCI-H647 | 0.241 | 0.18 | 0.191 | 0.146
42 | NCI-H2023 | 0.939 | 0.613 | 0.586 | 0.721
43 | NCI-H23 | 0.218 | 0.249 | 0.225 | 0.206
44 | NCI-H1944 | 0.762 | 0.789 | 0.617 | 0.855
45 | NCI-H1793 | 0.172 | 0.153 | 0.201 | 0.17
46 | NCI-H520 | 0.207 | 0.236 | 0.243 | 0.222
47 | NCI-H460 | 0.0323 | 0.0283 | 0.029 | 0.0339
48 | EKVX | 0.909 | 0.925 | 0.618 | 0.803

Row | Cell Line | relative viability (first compound 0.5 µM) | relative viability (first compound 5 µM) | relative viability (first compound 15.81 µM) | relative viability (first compound 50 µM)
49 | NCI-H358 | 0.382 | 0.283 | 0.376 | 0.49
50 | EPLC-272H | 0.317 | – | 0.317 | 0.507
51 | NCI-H1563 | 0.508 | 0.518 | 0.562 | 0.564
52 | NCI-H1395 | 0.713 | 0.929 | 0.514 | 0.673
53 | NCI-H2126 | 0.891 | 0.86 | 0.76 | 0.954
54 | LXF-289 | 0.756 | 0.686 | 0.628 | 0.665
55 | NCI-H2009 | 1.05 | 1.06 | 1.04 | 0.979
56 | SW 900 | 0.19 | 0.208 | 0.158 | 0.185
57 | NCI-H2405 | 0.868 | 0.77 | 0.824 | 0.68
58 | NCI-H1755 | 0.431 | 0.495 | 0.525 | 0.524
59 | LOU-NH91 | 0.38 | 0.336 | 0.332 | 0.347
60 | NCI-H3122 | 0.0898 | 0.13 | 0.0656 | 0.0782
61 | HCC-827 | 0.582 | 0.646 | 0.672 | 0.651
62 | SK-LU-1 | 0.217 | 0.18 | 0.2 | 0.186
63 | NCI-H1975 | 0.206 | 0.219 | 0.209 | 0.189
64 | NCI-H1651 | 0.761 | 0.836 | 0.853 | 0.734
65 | NCI-H441 | 0.411 | 0.326 | 0.381 | 0.351
66 | LCLC-103H | 0.837 | 0.919 | 0.946 | 0.979
67 | LCLC-97TM1 | 0.848 | 0.803 | 0.825 | 1.01
68 | NCI-H727 | 0.215 | – | 0.345 | 0.33
69 | NCI-H1355 | 0.697 | 0.754 | 0.637 | 0.707
70 | HOP-62 | 0.89 | 0.987 | 0.911 | 0.844
71 | NCI-H2085 | 0.436 | 0.376 | 0.503 | 0.372
